Results: patent US10683299B2, “Pyrazolopyrazine and triazolopyrazine compounds for the treatment of infectious diseases” (Hoffmann-La Roche Inc., priority 2017, dated 2020)

Test system: HBV replication in HepG2.2.15 cells
Assay: HBV inhibition assay in HepG2.2.15 cells (extracellular HBV DNA by qPCR)
Assay type: cell-based, Hepatitis B virus
Settings: Hepatitis B virus, HepG2.2.15, 120 h, five days after compound treatment, extracellular HBV DNA in culture supernatant by qPCR, read-out: EC50 (effective compound concentration at which HBV replication was inhibited by 50%)
Description: HepG2.2.15 is a stably-transfected cell line containing the HBV genome. It is derived from the hepatoblastoma cell line Hep G2 (American Type Culture Collection, ATCC® HB-8065™) by the published procedures described in reference: M A Selles et al. Proc. Natl. Acad. Sci. USA 1987, 84, 1005-1009. The cell line was maintained in Dulbecco's modified Eagle's medium and nutrient mixture F-12 (DMEM/F-12, Gibco, Cat. #: 11320-033) supplemented with 10% fetal bovine serum (Gibco, Cat. #:10099-141), 100 U/mL penicillin, 100 μg/mL streptomycin (Gibco, Cat. #:15140-122), and 0.3 mg/mL of G418 Sulfate (Gibco, Cat. #: 10131-027).
HepG2.2.15 cells were seeded into 96-well plates at a density of 3×10^4 cells per well in culture media of 100 μL DMEM/F-12 supplemented with 2.5% fetal bovine serum, 100 U/mL penicillin, 100 μg/mL streptomycin and cultured overnight at 37° C. The test compounds were serially half-log diluted in DMSO, then diluted 100 times in culture media. 100 μL culture media containing diluted compounds were added into the plates to reach 0.5% final concentration of DMSO in every well. Five days after compound treatment, culture supernatant was collected for further analysis.
For quantitative PCR detection of extracellular HBV DNA, culture supernatant was processed by 500 μg/mL Proteinase K (Sigma, Cat. #:P2308) digestion at 50° C. for 1 hour. After heat inactivation of the enzyme at 95° C. for 15 minutes, the samples were subjected to HBV DNA quantification by qPCR. The effective compound concentration at which HBV replication was inhibited by 50% (EC50) was determined.

| Structure (SMILES) | EC50 |
| --- | --- |
| C[C@H]1Cn2ncc(N3[C@@H](C)CNS3(=O)=O)c2CN1C(=O)Nc1cc(F)c(F)c(F)c1 [Example 22, (6S)-6-methyl-3-[(3S)-3-methyl-1,1-dioxo-1,2,5-thiadiazolidin-2-yl]-N-(3,4,5-trifluorophenyl)-6,7-dihydro-4H-pyrazolo[1,5-a]pyrazine-5-carboxamide] | 27 nM |
| C[C@H]1Cn2ncc(N3CCNS3(=O)=O)c2CN1C(=O)Nc1cc(F)c(F)c(F)c1 [Example 19, (6S)-3-(1,1-dioxo-1,2,5-thiadiazolidin-2-yl)-6-methyl-N-(3,4,5-trifluorophenyl)-6,7-dihydro-4H-pyrazolo[1,5-a]pyrazine-5-carboxamide] | 14 nM |
| C[C@H]1Cn2ncc(N3CCCS3(=O)=O)c2CN1C(=O)NCc1ccccc1 [Example 11, (6S)—N-benzyl-3-(1,1-dioxo-1,2-thiazolidin-2-yl)-6-methyl-6,7-dihydro-4H-pyrazolo[1,5-a]pyrazine-5-carboxamide] | 110 nM |
| C[C@H]1Cn2ncc(N3CCCS3(=O)=O)c2CN1C(=O)Nc1ccc(F)c(C(F)(F)F)c1 [Example 7, (6S)-3-(1,1-dioxo-1,2-thiazolidin-2-yl)-N-[4-fluoro-3-(trifluoromethyl)phenyl]-6-methyl-6,7-dihydro-4H-pyrazolo[1,5-a]pyrazine-5-carboxamide] | 9.8 nM |
| C[C@H]1Cn2ncc(N3CCC[S+]3[O-])c2CN1C(=O)Nc1cc(F)c(F)c(F)c1 (stereo partly drawn) [Example 17, (6S)-6-methyl-3-(1-oxo-1,2-thiazolidin-2-yl)-N-(3,4,5-trifluorophenyl)-6,7-dihydro-4H-pyrazolo[1,5-a]pyrazine-5-carboxamide] | 86 nM |
| C[C@H]1Cn2ncc(N3CCCS3(=O)=O)c2CN1C(=O)NCc1ccsc1 [Example 34, (6S)-3-(1,1-dioxo-1,2-thiazolidin-2-yl)-6-methyl-N-(3-thienylmethyl)-6,7-dihydro-4H-pyrazolo[1,5-a]pyrazine-5-carboxamide] | 99 nM |
| C[C@H]1Cn2ncc(N3CC(O)CNS3(=O)=O)c2CN1C(=O)Nc1cc(F)c(F)c(F)c1 (stereo partly drawn) [Example 26, (6S)-3-(4-hydroxy-1,1-dioxo-1,2,6-thiadiazinan-2-yl)-6-methyl-N-(3,4,5-trifluorophenyl)-6,7-dihydro-4H-pyrazolo[1,5-a]pyrazine-5-carboxamide] | 130 nM |
| C[C@H]1Cn2ncc(N3CCN(C(=O)OCc4ccccc4)CS3(=O)=O)c2CN1C(=O)Nc1cc(F)c(F)c(F)c1 [Example 13, Benzyl 2-[(6S)-6-methyl-5-[(3,4,5-trifluorophenyl)carbamoyl]-6,7-dihydro-4H-pyrazolo[1,5-a]pyrazin-3-yl]-1,1-dioxo-1,2,5-thiadiazinane-5-carboxylate] | 52 nM |
| C[C@H]1Cn2ncc(N3CC(N4CCC[C@H]4C(=O)O)CS3(=O)=O)c2CN1C(=O)Nc1cc(F)c(F)c(F)c1 (stereo partly drawn) [Example 35, (2S)-1-[2-[(6S)-6-methyl-5-[(3,4,5-trifluorophenyl)carbamoyl]-6,7-dihydro-4H-pyrazolo[1,5-a]pyrazin-3-yl]-1,1-dioxo-1,2-thiazolidin-4-yl]pyrrolidine-2-carboxylic Acid] | 6.7 nM |
| C[C@H]1Cn2ncc(N3CCCS3(=O)=O)c2CN1C(=O)Nc1ccnc(C(F)F)c1 [Example 6, (6S)—N-[2-(difluoromethyl)-4-pyridyl]-3-(1,1-dioxo-1,2-thiazolidin-2-yl)-6-methyl-6,7-dihydro-4H-pyrazolo[1,5-a]pyrazine-5-carboxamide] | 83 nM |
| C[C@H]1Cn2ncc(N3CC4COCCN4S3(=O)=O)c2CN1C(=O)Nc1cc(F)c(F)c(F)c1 (stereo partly drawn) [Example 12, (6S)-3-(1,1-dioxo-3a,4,6,7-tetrahydro-3H-[1,2,5]thiadiazolo[3,2-c][1,4]oxazin-2-yl)-6-methyl-N-(3,4,5-trifluorophenyl)-6,7-dihydro-4H-pyrazolo[1,5-a]pyrazine-5-carboxamide] | 40 nM |
| C[C@H]1Cn2ncc(N3CCCS3(=O)=O)c2CN1C(=O)Nc1ccc(F)c(C#N)c1 [Example 5, (6S)—N-(3-cyano-4-fluoro-phenyl)-3-(1,1-dioxo-1,2-thiazolidin-2-yl)-6-methyl-6,7-dihydro-4H-pyrazolo[1,5-a]pyrazine-5-carboxamide] | 14 nM |
| C[C@H]1Cn2ncc(N3CCCS3(=O)=O)c2CN1C(=O)Nc1cc(F)c(F)c(F)c1 [Example 1, (6S)-3-(1,1-dioxo-1,2-thiazolidin-2-yl)-6-methyl-N-(3,4,5-trifluorophenyl)-6,7-dihydro-4H-pyrazolo[1,5-a]pyrazine-5-carboxamide] | 4.6 nM |
